Laboratory results reported in ChEMBL document CHEMBL3885861, “Open TG-GATES”.

Species: Rattus norvegicus
Assay: Open TG-GATES - Regimen: Single
Format: toxicity, organism-based, Sprague-Dawley
Parameters: regimen Single, gender Male, age 6 weeks
Conditions: in vivo, po, route gavage; for gamma-GTP / ALP / AST / CRE / DBIL / GLC / IP / K / LDH / Na / PL / RALB / TBIL / TC / TP: tissue Plasma; for Bas / Eos / Lym / MCHC / MCV / Mono / Neu / RBC / Ret / WBC: tissue Blood; for KIDNEY_L / KIDNEY_R / KIDNEY_TOTAL: tissue Kidney; for LIVER: tissue Liver
[1] = 200 mg/kg, 3 h, dose level Middle
[2] = 200 mg/kg, 6 h, dose level Middle
[3] = 200 mg/kg, 9 h, dose level Middle
[4] = 200 mg/kg, 24 h, dose level Middle
[5] = 600 mg/kg, 3 h, dose level High
[6] = 600 mg/kg, 6 h, dose level High
[7] = 600 mg/kg, 9 h, dose level High
[8] = 600 mg/kg, 24 h, dose level High

## CS(=O)(=O)O.Cc1ccc(NC(=O)c2ccc(CN3CCN(C)CC3)cc2)cc1Nc1nccc(-c2cccnc2)n1 [IMATINIB MESYLATE]
60 mg/kg, 24 h, dose level Low
  gamma-GTP: 0.9 IU/L
[1]
  Bas: 0%
  Eos: 0.6%
  Lym: 76.2%
  MCHC: 32.5%
  MCV: 63 fL
  Mono: 2.4%
  Neu: 19.8%
  RBC: 602.4 x10_4/ul
  Ret: 10.1%
  WBC: 94 x10_2/uL
  KIDNEY_L: 0.8 g
  KIDNEY_R: 0.9 g
  KIDNEY_TOTAL: 1.7 g
  LIVER: 8.5 g
  ALP: 1473.2 IU/L
  AST: 86.2 IU/L
  CRE: 0.2 mg/dL
  DBIL: 0.014 mg/dL
  GLC: 185 mg/dL
  IP: 8.5 mg/dL
  K: 3.9 meq/L
  LDH: 224.6 IU/L
  Na: 142.7 meq/L
  PL: 131.8 mg/dL
  RALB: 4 g/dL
  TBIL: 0.042 mg/dL
  TC: 75.8 mg/dL
  TP: 5.4 g/dL
  gamma-GTP: 0.8 IU/L
[2]
  Bas: 0%
  Eos: 0%
  Lym: 75.8%
  MCHC: 32.7%
  MCV: 63 fL
  Mono: 1.8%
  Neu: 21.6%
  RBC: 605.6 x10_4/ul
  Ret: 9.4%
  WBC: 92.8 x10_2/uL
  KIDNEY_L: 0.9 g
  KIDNEY_R: 0.9 g
  KIDNEY_TOTAL: 1.8 g
  LIVER: 8.3 g
  ALP: 1397.4 IU/L
  AST: 83.8 IU/L
  CRE: 0.2 mg/dL
  DBIL: 0.014 mg/dL
  GLC: 184.2 mg/dL
  IP: 9.1 mg/dL
  K: 3.8 meq/L
  LDH: 187.4 IU/L
  Na: 139.7 meq/L
  PL: 147.6 mg/dL
  RALB: 4 g/dL
  TBIL: 0.046 mg/dL
  TC: 81.6 mg/dL
  TP: 5.4 g/dL
  gamma-GTP: 0.8 IU/L
[3]
  Bas: 0%
  Eos: 0%
  Lym: 78.6%
  MCHC: 33.1%
  MCV: 64.1 fL
  Mono: 1%
  Neu: 19.2%
  RBC: 566.4 x10_4/ul
  Ret: 10.1%
  KIDNEY_L: 0.9 g
  KIDNEY_R: 0.9 g
  KIDNEY_TOTAL: 1.8 g
  LIVER: 7.8 g
  ALP: 1450.6 IU/L
  AST: 80.6 IU/L
  CRE: 0.2 mg/dL
  DBIL: 0.016 mg/dL
  GLC: 180 mg/dL
  IP: 9 mg/dL
  K: 4 meq/L
  LDH: 197.8 IU/L
  Na: 139.8 meq/L
  PL: 145.8 mg/dL
  RALB: 4.2 g/dL
  TBIL: 0.062 mg/dL
  TC: 82.6 mg/dL
  TP: 5.5 g/dL
  gamma-GTP: 0.9 IU/L
[4]
  Bas: 0%
  Eos: 0.6%
  Lym: 81%
  MCHC: 33%
  MCV: 63.9 fL
  Mono: 1.2%
  Neu: 16.2%
  RBC: 583.2 x10_4/ul
  Ret: 7.9%
  WBC: 97.7 x10_2/uL
  KIDNEY_L: 0.9 g
  KIDNEY_R: 0.9 g
  KIDNEY_TOTAL: 1.8 g
  LIVER: 8.6 g
  ALP: 1768.2 IU/L
  AST: 98.4 IU/L
  CRE: 0.2 mg/dL
  DBIL: 0.008 mg/dL
  GLC: 180.4 mg/dL
  IP: 7.5 mg/dL
  K: 4 meq/L
  LDH: 181.8 IU/L
  Na: 143 meq/L
  PL: 148.4 mg/dL
  RALB: 4.1 g/dL
  TBIL: 0.042 mg/dL
  TC: 79 mg/dL
  TP: 5.8 g/dL
  gamma-GTP: 0.8 IU/L
[5]
  Bas: 0%
  Eos: 1%
  Lym: 74.2%
  MCHC: 32.7%
  MCV: 63.3 fL
  Mono: 2.6%
  Neu: 22.2%
  RBC: 595.8 x10_4/ul
  Ret: 9.3%
  WBC: 88.6 x10_2/uL
  KIDNEY_L: 0.9 g
  KIDNEY_R: 0.9 g
  KIDNEY_TOTAL: 1.8 g
  LIVER: 8.9 g
  ALP: 1505 IU/L
  AST: 86 IU/L
  CRE: 0.2 mg/dL
  DBIL: 0.01 mg/dL
  GLC: 185.4 mg/dL
  IP: 9 mg/dL
  K: 3.9 meq/L
  LDH: 244.6 IU/L
  Na: 143.3 meq/L
  PL: 138.4 mg/dL
  RALB: 4.2 g/dL
  TBIL: 0.044 mg/dL
  TC: 79 mg/dL
  TP: 5.6 g/dL
  gamma-GTP: 0.8 IU/L
[6]
  Bas: 0%
  Eos: 0.8%
  Lym: 67.8%
  MCHC: 33.1%
  MCV: 63.5 fL
  Mono: 1.6%
  Neu: 28.6%
  RBC: 589.6 x10_4/ul
  Ret: 8.9%
  WBC: 104.9 x10_2/uL
  KIDNEY_L: 0.9 g
  KIDNEY_R: 0.9 g
  KIDNEY_TOTAL: 1.8 g
  LIVER: 7.9 g
  ALP: 1661.2 IU/L
  AST: 88.2 IU/L
  CRE: 0.2 mg/dL
  DBIL: 0.016 mg/dL
  GLC: 180.4 mg/dL
  IP: 8.9 mg/dL
  K: 3.9 meq/L
  LDH: 553.8 IU/L
  Na: 140 meq/L
  PL: 159.4 mg/dL
  RALB: 4.1 g/dL
  TBIL: 0.048 mg/dL
  TC: 91.6 mg/dL
  TP: 5.3 g/dL
  gamma-GTP: 0.8 IU/L
[7]
  Bas: 0%
  Eos: 0%
  Lym: 72.2%
  MCHC: 32.6%
  MCV: 63.6 fL
  Mono: 1.6%
  Neu: 25.2%
  RBC: 592.6 x10_4/ul
  Ret: 9.7%
  KIDNEY_L: 0.9 g
  KIDNEY_R: 0.9 g
  KIDNEY_TOTAL: 1.8 g
  LIVER: 7.8 g
  ALP: 1627 IU/L
  AST: 85 IU/L
  CRE: 0.2 mg/dL
  DBIL: 0.016 mg/dL
  GLC: 183.2 mg/dL
  IP: 8.8 mg/dL
  K: 3.8 meq/L
  LDH: 180.8 IU/L
  Na: 140.1 meq/L
  PL: 140.8 mg/dL
  RALB: 4.2 g/dL
  TBIL: 0.054 mg/dL
  TC: 78 mg/dL
  TP: 5.5 g/dL
  gamma-GTP: 0.8 IU/L
[8]
  Bas: 0%
  Eos: 0.8%
  Lym: 76.4%
  MCHC: 33.1%
  MCV: 62.5 fL
  Mono: 2%
  Neu: 20.4%
  RBC: 584.2 x10_4/ul
  Ret: 7.5%
  WBC: 80.4 x10_2/uL
  KIDNEY_L: 0.9 g
  KIDNEY_R: 0.9 g
  KIDNEY_TOTAL: 1.9 g
  LIVER: 7.8 g
  ALP: 1838.6 IU/L
  AST: 118.4 IU/L
  CRE: 0.2 mg/dL
  DBIL: 0.016 mg/dL
  GLC: 175.2 mg/dL
  IP: 7.8 mg/dL
  K: 4.1 meq/L
  LDH: 227.6 IU/L
  Na: 141.8 meq/L
  PL: 131.4 mg/dL
  RALB: 4 g/dL
  TBIL: 0.072 mg/dL
  TC: 72.6 mg/dL
  TP: 5.6 g/dL
  gamma-GTP: 0.9 IU/L
